Measured values taken from patent publication US6444852B1, “Amines useful in inhibiting gas hydrate formation” (Goldschmidt Chemical Corporation, priority 1999, dated 2002).

Assays:
[1] = Behavior (solubility/dispersibility) in water and […] brine at 5% concentration; format: physicochemical; settings: 5% concentration as is
Description: The compounds tested are set forth in the following Table 1, CE# denotes a comparative example, whereas S# denotes a compound of the present invention.

[2] = Anti-agglomeration of gas hydrates in presence of crude oil (high-pressure autoclave); settings: for State of the hydrates after depressurization: 1.125% solvent-free basis in salt water, 3300 psi, 40° F. 16 hours
Description: The comparative test was carried out at a 50:50 oil to water ratio.
The crude oil was heated to 150° F. to dissolve waxes. […] To saturate the liquid with gas, after 30 minutes, the agitation was reduced to 100 rpm and the autoclave was cooled at 10° F./hr to 40° F., at which time, agitation was stopped and the 40° F. temperature was maintained for 16 hours.
After the 16 hour time period, agitation was restarted at 500 rpm to determine the torque required and the experiment was run for 5 hours, if possible. The autoclave was then rapidly depressurized and the state of the hydrates was observed.

Behavior in Water [1] | Behavior in […] Brine [1] | Molecule | State of the hydrates after depressurization ([2]; oil to water 50:50) | State of the hydrates after depressurization ([2]; oil to water 70:30) | Gas hydrates on the walls of the reactor ([2]; 1.125% solvent-free basis, 70:30 and 50:50 ratios) | Effectiveness as anti-agglomeration agent ([2]; low use levels)
Insoluble | – | CCCCCCCCCCCCCCCC[N+](CCCC)(CCCC)CCCC.[Br-] [CE2, Hexadecyl tributyl ammonium bromide, reference compound] | – | – | – | –
Soluble | Soluble | C12-C14 oxypropyl dibutyl amino propyl tributylammonium dibromide [Sample S5] | – | – | – | –
Soluble | Soluble | C12-C14 oxypropyl dibutyl ethylammonium ethylsulfate [Sample S4] | – | – | – | –
Soluble | Soluble | C12-C14 oxypropyl dibutyl methylammonium methyl sulfate [Sample S2] | – | – | – | –
– | – | C12-C14 oxypropyl tributylammonium bromide [Sample S1] | very small particles which were creamy in texture | very small particles which were creamy in texture | No gas hydrates were observed on the walls of the reactor | highly effective
